Experimental findings from PubChem BioAssay AID1259407 (Chemical Carcinogenesis Research Information System (CCRIS), 2018) are described below.

Structures are written as SMILES. Calls of active or inactive are those of the source. The rule behind the calls is not given here.

This data set concerns CCRIS mutagenicity, Ames/micronucleus/aberration tests. The data set is described as follows: CCRIS mutagenicity studies.
The mark [1] stands for this setting: Test System: AMES SALMONELLA TYPHIMURIUM, Strain/Indicator: TA100, Metabolic Activation: NONE, Method: PREINCUBATION
Setting [2] is: Test System: AMES SALMONELLA TYPHIMURIUM, Strain/Indicator: TA97, Metabolic Activation: NONE, Method: STANDARD PLATE.
Where [3] appears, read: Test System: AMES SALMONELLA TYPHIMURIUM, Strain/Indicator: TA97, Metabolic Activation: RAT, LIVER, S-9, AROCLOR 1254, Method: STANDARD PLATE.
Setting [4] is: Test System: AMES SALMONELLA TYPHIMURIUM, Strain/Indicator: TA98, Metabolic Activation: NONE, Method: STANDARD PLATE.
[5] abbreviates: Test System: AMES SALMONELLA TYPHIMURIUM, Strain/Indicator: TA98, Metabolic Activation: RAT, LIVER, S-9, AROCLOR 1254, Method: STANDARD PLATE.
[6] abbreviates: Test System: AMES SALMONELLA TYPHIMURIUM, Strain/Indicator: TA100, Metabolic Activation: NONE, Method: STANDARD PLATE.
Where [7] appears, read: Test System: AMES SALMONELLA TYPHIMURIUM, Strain/Indicator: TA100, Metabolic Activation: RAT, LIVER, S-9, AROCLOR 1254, Method: STANDARD PLATE.
Where [8] appears, read: Test System: AMES SALMONELLA TYPHIMURIUM, Strain/Indicator: TA102, Metabolic Activation: NONE, Method: STANDARD PLATE.
[9] abbreviates: Test System: AMES SALMONELLA TYPHIMURIUM, Strain/Indicator: TA102, Metabolic Activation: RAT, LIVER, S-9, AROCLOR 1254, Method: STANDARD PLATE.

`O=[N+]([O-])c1ccccc1SS/C(Cl)=C(\Cl)C(F)(F)F`: the mutagenic call was “active; positive” (Test System: AMES SALMONELLA TYPHIMURIUM, Strain/Indicator: TA100(DNP6), Metabolic Activation: NONE, Method: PREINCUBATION) and “active; positive” (Test System: AMES SALMONELLA TYPHIMURIUM, Strain/Indicator: TA100(NR), Metabolic Activation: NONE, Method: PREINCUBATION).
As for `Cc1cc2c(cc1N=O)OCO2`, the mutagenic call reads like this: under setting [1], “active; positive”; (Test System: AMES SALMONELLA TYPHIMURIUM, Strain/Indicator: TA100, Metabolic Activation: RAT, LIVER, S-9, PHENOBARBITAL AND 5,6-BENZOFLAVONE, Method: PREINCUBATION) “active; positive”.
As for `O=S(=O)(c1cc(Cl)cc(Cl)c1O)c1cc(Cl)cc(Cl)c1O`, the mutagenic call runs as follows: under setting [2], “inactive; negative”; under setting [3], “inactive; negative”; under setting [4], “inactive; negative”; under setting [5], “inactive; negative”; under setting [6], “inactive; negative”; under setting [7], “inactive; negative”. The mutagenic call runs as follows: under setting [8], “inactive; negative”; under setting [9], “inactive; negative”.
`[N-]=[N+]=NC[C@@H](O)[C@H](O)[C@H](O)[C@@H](O)C(=O)O`: the mutagenic call reads like this: under setting [4], “inactive; negative”; under setting [6], “active; positive”.
For `CC(C)NCC(O)c1cc(O)cc(O)c1` (stereo not drawn), under “End Point: MORPHOLOGICAL TRANSFORMATION, Test System: SYRIAN HAMSTER EMBRYO CELLS (SHE), Metabolic Activation: NONE”, the mutagenic call is “inactive; negative”.
On to `Cc1cc2c3ccccc3cc3ccc4cccc1c4c32`, for which the mutagenic call is “active; positive” (Test System: AMES SALMONELLA TYPHIMURIUM, Strain/Indicator: TA100, Metabolic Activation: RAT, INTACT HEPATOCYTES, AROCLOR 1254, Method: PREINCUBATION) and “active; positive” (Test System: AMES SALMONELLA TYPHIMURIUM, Strain/Indicator: TA100, Metabolic Activation: RAT, NADPH-FORTIFIED HOMOGENIZED HEPATOCYTES, AROCLOR 1254, Method: PREINCUBATION).
As for `O=NN(CC(=O)O)CC(=O)O`, the mutagenic call by setting is: under setting [4], “inactive; negative”; (Test System: AMES SALMONELLA TYPHIMURIUM, Strain/Indicator: TA98, Metabolic Activation: RAT, LIVER, S-9, Method: STANDARD PLATE) “inactive; negative”; under setting [1], “active; positive”; under setting [6], “inactive; negative”; (Test System: AMES SALMONELLA TYPHIMURIUM, Strain/Indicator: TA100, Metabolic Activation: RAT, LIVER, S-9, Method: STANDARD PLATE) “inactive; negative”; (Test System: AMES SALMONELLA TYPHIMURIUM, Strain/Indicator: TA1535, Metabolic Activation: NONE, Method: STANDARD PLATE) “inactive; negative”. The mutagenic call was “inactive; negative” (Test System: AMES SALMONELLA TYPHIMURIUM, Strain/Indicator: TA1535, Metabolic Activation: RAT, LIVER, S-9, Method: STANDARD PLATE); “inactive; negative” (Test System: AMES SALMONELLA TYPHIMURIUM, Strain/Indicator: TA1537, Metabolic Activation: NONE, Method: STANDARD PLATE); “inactive; negative” (Test System: AMES SALMONELLA TYPHIMURIUM, Strain/Indicator: TA1537, Metabolic Activation: RAT, LIVER, S-9, Method: STANDARD PLATE); “inactive; negative” (Test System: AMES SALMONELLA TYPHIMURIUM, Strain/Indicator: TA1538, Metabolic Activation: NONE, Method: STANDARD PLATE); “inactive; negative” (Test System: AMES SALMONELLA TYPHIMURIUM, Strain/Indicator: TA1538, Metabolic Activation: RAT, LIVER, S-9, Method: STANDARD PLATE).
For the molecule `CC(=O)N[C@@H](CS)C(=O)O`, the mutagenic call (Test System: AMES SALMONELLA TYPHIMURIUM, Strain/Indicator: TA92, Metabolic Activation: NONE, Method: STANDARD PLATE) was “inactive; negative”; the mutagenic call (Test System: AMES SALMONELLA TYPHIMURIUM, Strain/Indicator: TA92, Metabolic Activation: RAT, KIDNEY, S-9, Method: STANDARD PLATE) is “active; positive”; the mutagenic call under setting [2] is “inactive; negative”; the mutagenic call (Test System: AMES SALMONELLA TYPHIMURIUM, Strain/Indicator: TA97, Metabolic Activation: RAT, KIDNEY, S-9, Method: STANDARD PLATE) is “active; positive”; the mutagenic call under setting [8] was “inactive; negative”; the mutagenic call (Test System: AMES SALMONELLA TYPHIMURIUM, Strain/Indicator: TA104, Metabolic Activation: NONE, Method: STANDARD PLATE) is “inactive; negative”. Further, the mutagenic call by setting is: (Test System: AMES SALMONELLA TYPHIMURIUM, Strain/Indicator: TA104, Metabolic Activation: RAT, KIDNEY, S-9, Method: STANDARD PLATE) “active; positive”; (Test System: CHINESE HAMSTER V-79, Strain/Indicator: V-79/6-THIOGUANINE, Metabolic Activation: NONE, Method: STANDARD PLATE) “inactive; negative”.
In the case of `ClCc1ccccn1`, the mutagenic call runs as follows: under setting [2], “inactive; negative”; under setting [3], “inactive; negative”; under setting [4], “inactive; negative”; under setting [5], “inactive; negative”; under setting [6], “active; positive”; under setting [7], “active; positive”. For the same molecule, the mutagenic call was “inactive; negative” under setting [8]; “inactive; negative” under setting [9]; “active; positive” (Test System: CHINESE HAMSTER OVARY, Strain/Indicator: CHO-K1-BH4 (HGPRT)/6-THIOGUANINE, Metabolic Activation: NONE); “inactive; negative” (Test System: CHINESE HAMSTER OVARY, Strain/Indicator: CHO-K1-BH4 (HGPRT)/6-THIOGUANINE, Metabolic Activation: S-9).
`CCCSP(=O)(OCC)SCCC`: the mutagenic call by setting is: (End Point: In vitro chromosomal aberrations, Test System: Chinese hamster ovary (CHO) cells, Metabolic Activation: None) “inactive; negative”; (End Point: UDS/DNA repair, Test System: Fischer 344 rat (male) hepatocytes, Metabolic Activation: None, Method: Autoradiography) “inactive; negative”; (End Point: UDS, Test System: Fischer 344 rat hepatocytes, Metabolic Activation: None, Method: Autoradiography) “inactive; negative”; (Test System: Ames Salmonella typhimurium, Strain/Indicator: TA98, Metabolic Activation: None, Method: Plate incorporation) “inactive; negative”; (Test System: Ames Salmonella typhimurium, Strain/Indicator: TA98, Metabolic Activation: Rat, Liver, S-9, Method: Plate incorporation) “inactive; negative”; (Test System: Ames Salmonella typhimurium, Strain/Indicator: TA100, Metabolic Activation: None, Method: Plate incorporation) “inactive; negative”. Further, the mutagenic call (Test System: Ames Salmonella typhimurium, Strain/Indicator: TA100, Metabolic Activation: Rat, Liver, S-9, Method: Plate incorporation) was “inactive; negative”; the mutagenic call (Test System: Ames Salmonella typhimurium, Strain/Indicator: TA1535, Metabolic Activation: None, Method: Plate incorporation) is “inactive; negative”; the mutagenic call (Test System: Ames Salmonella typhimurium, Strain/Indicator: TA1535, Metabolic Activation: Rat, Liver, S-9, Method: Plate incorporation) is “inactive; negative”; the mutagenic call (Test System: Ames Salmonella typhimurium, Strain/Indicator: TA1537, Metabolic Activation: None, Method: Plate incorporation) was “inactive; negative”; the mutagenic call (Test System: Ames Salmonella typhimurium, Strain/Indicator: TA1537, Metabolic Activation: Rat, Liver, S-9, Method: Plate incorporation) was “inactive; negative”; the mutagenic call (Test System: Ames Salmonella typhimurium, Strain/Indicator: TA1538, Metabolic Activation: None, Method: Plate incorporation) was “inactive; negative”. Moreover, the mutagenic call by setting is: (Test System: Ames Salmonella typhimurium, Strain/Indicator: TA1538, Metabolic Activation: Rat, Liver, S-9, Method: Plate incorporation) “inactive; negative”; (Test System: Chinese hamster ovary, Strain/Indicator: CHO-K1-BH4 (HGPRT), Metabolic Activation: None, Method: Suspension/plate) “inactive; negative”; (Test System: Chinese hamster ovary, Strain/Indicator: CHO-K1-BH4 (HGPRT), Metabolic Activation: Rat, Liver, S-9, Method: Suspension/plate) “inactive; negative”; (Test System: Mouse lymphoma cells, Strain/Indicator: L5178Y cells, Metabolic Activation: None, Method: Plate) “inactive; negative”; (Test System: Mouse lymphoma cells, Strain/Indicator: L5178Y cells, Metabolic Activation: S-9, Method: Plate) “inactive; negative”.
